Source: PMC6539903 (Molecules, 2019)

Assays:
[1] = target: T1, COX-2 (Homo sapiens, UniProt P35354); experiment: COX-2 inhibition assay (COX-2 ELISA kit); assay type: biochemical; details: for Selectivity Index (SI) (COX-1 IC50/COX-2 IC50): in vitro COX-2 selectivity index; for IC50: mean of four determinations, read-out: IC50 ± SD COX-2
T1 construct: purchased Cayman Chemical 701180
T1 sequence (P35354 18-604): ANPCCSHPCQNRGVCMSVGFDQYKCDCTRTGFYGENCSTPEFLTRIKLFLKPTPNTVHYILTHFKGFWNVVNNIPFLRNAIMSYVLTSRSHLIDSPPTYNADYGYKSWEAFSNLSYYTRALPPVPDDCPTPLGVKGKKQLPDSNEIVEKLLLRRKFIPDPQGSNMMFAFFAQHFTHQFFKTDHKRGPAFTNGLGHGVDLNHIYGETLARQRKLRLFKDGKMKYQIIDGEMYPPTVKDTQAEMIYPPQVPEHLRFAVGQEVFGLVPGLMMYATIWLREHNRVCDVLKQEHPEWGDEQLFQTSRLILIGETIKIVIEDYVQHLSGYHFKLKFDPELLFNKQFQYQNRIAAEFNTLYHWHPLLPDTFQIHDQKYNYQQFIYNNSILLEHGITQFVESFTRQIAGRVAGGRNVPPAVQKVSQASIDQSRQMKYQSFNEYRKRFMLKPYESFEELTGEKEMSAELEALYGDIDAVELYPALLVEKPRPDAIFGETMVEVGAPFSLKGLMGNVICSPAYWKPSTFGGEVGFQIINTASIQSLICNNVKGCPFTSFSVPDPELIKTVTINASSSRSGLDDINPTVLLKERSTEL
Experimental: (§1) 3-(4,5-Dimethylthiazol-2-yl)-2,5-diphenyltetrazolium (MTT) were purchased from Beyotime Institute of Biotechnology (Haimen, China). Annexcin V-FITC cell apoptosis assay kit (catalog No.BA11100) was purchased from BIO-BOX (Nanjing, China). Fibronectin (#F1056) and laminin (#L2020) were purchased from Sigma-Aldrich (St. Louis, MO, USA).
(§2) Then 1 M HCl was added to the reaction mixture to stop the reaction, and one-tenth of the volume of saturated stannous chloride (50 mg/mL) was added. The reaction mixture was incubated at room temperature for 5 min, and PGF2 and PGH2 were produced.

[2] = tested on: MCF-7; experiment: MTT antiproliferation assay, MCF-7; assay type: cell-based; details: Homo sapiens, MCF7, 48 h, n = 3, read-out: IC50 ± SD MCF-7
Experimental: (§3) MCF-7 (human breast cell line), HeLa (human cervical cell line), A549 (human lung cell line), HepG2 (human liver cell line), SW620 (human colorectal cell line) and a non-cancer cell line, NCM460 (Human colonic epithelial cells) were preserved at the State Key Laboratory of Pharmaceutical Biotechnology, Nanjing University (Nanjing, China).
(§4) The antiproliferative activity of the synthetic compounds against the SW620, MCF-7, HeLa, A549, HepG2, and NUM460 cell lines was evaluated by a colorimetric assay based on a modified standard (MTT). […] Thereafter, MTT (5 mg/mL in PBS) was added to each well and incubated for 4 h. 150 μL of DMSO was added to each well and shaken with a shaker. The absorbance (OD 570 nm) was read at 630 nm on an ELISA reader (ELx800, BioTek, montpelier, VT, USA). IC50 values for the compounds were calculated by comparison to DMSO treated control wells. Three replicate wells were used for each drug concentration. Each assay was performed three times.

[3] = tested on: HeLa; experiment: MTT antiproliferation assay, HeLa; assay type: cell-based; details: Homo sapiens, 48 h, n = 3, read-out: IC50 ± SD HeLa
Experimental: as §3, §4

[4] = MTT cytotoxicity assay, non-cancer colon cells; assay type: cell-based; details: human, NCM460 colonic epithelial cells (non-cancer cell line), n = 3, non-cancer cell line, read-out: CC50 ± SD NUM460
Experimental: Besides, the MTT assay was performed on a non-cancer line NCM460 to assess the cytotoxicity of the test compound to normal colon cells.
as §3, §4

[5] = tested on: SW620 cells; experiment: MTT antiproliferation assay, SW620; assay type: cell-based; details: Homo sapiens, SW-620, 48 h, n = 3, read-out: IC50 ± SD SW620
Experimental: as §3, §4

[6] = target: T2, COX-1 (Homo sapiens, UniProt P23219); experiment: COX-1 inhibition assay (COX-1 ELISA kit); assay type: biochemical; details: mean of four determinations; read-out: IC50 ± SD COX-1
T2 construct: purchased Cayman Chemical 701170
Experimental: as §1, §2

[7] = tested on: HepG2; experiment: MTT antiproliferation assay, HepG2; assay type: cell-based; details: Homo sapiens, 48 h, n = 3, read-out: IC50 ± SD HepG2
Experimental: as §3, §4

[8] = tested on: A549; experiment: MTT antiproliferation assay, A549; assay type: cell-based; details: Homo sapiens, 48 h, n = 3, read-out: IC50 ± SD A549
Experimental: as §3, §4

T2 sequence (P23219 24-599): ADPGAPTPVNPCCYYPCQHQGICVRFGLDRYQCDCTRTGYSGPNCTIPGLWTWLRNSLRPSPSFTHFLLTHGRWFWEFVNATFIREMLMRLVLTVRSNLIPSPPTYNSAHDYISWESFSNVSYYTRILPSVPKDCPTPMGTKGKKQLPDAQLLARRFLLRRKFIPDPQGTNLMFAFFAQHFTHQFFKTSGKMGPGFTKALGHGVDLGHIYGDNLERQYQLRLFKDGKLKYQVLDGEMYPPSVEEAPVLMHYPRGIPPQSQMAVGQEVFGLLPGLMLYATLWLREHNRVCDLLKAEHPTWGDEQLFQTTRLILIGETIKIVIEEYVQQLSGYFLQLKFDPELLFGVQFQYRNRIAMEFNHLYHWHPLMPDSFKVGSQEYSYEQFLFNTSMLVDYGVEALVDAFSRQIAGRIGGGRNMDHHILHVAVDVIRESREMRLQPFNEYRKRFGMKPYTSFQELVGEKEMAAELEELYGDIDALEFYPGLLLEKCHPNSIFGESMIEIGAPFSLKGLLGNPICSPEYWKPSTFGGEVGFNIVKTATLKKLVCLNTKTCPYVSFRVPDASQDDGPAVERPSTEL

| SMILES | Selectivity Index (SI) (COX-1 IC50/COX-2 IC50) [1] | IC50 [1] [µM] | IC50 [2] [µM] | IC50 [3] [µM] | CC50 at 48 h [4] [µM] | IC50 [5] [µM] | melting point [°C] | IC50 [6] [µM] | IC50 [7] [µM] | IC50 [8] [µM] |
| --- | --- | --- | --- | --- | --- | --- | --- | --- | --- | --- |
| NS(=O)(=O)c1ccc(N2N=C(c3ccc(I)cc3)CC2c2ccc3c(c2)OCO3)cc1 (stereo not drawn) [Compound 4d, 4-(5-(Benzo[d][1,3]dioxol-5-yl)-3-(4-iodophenyl)-4,5-dihydro-1H-pyrazol-1-yl)benzenesulfonamide] | 21.53 | 1.2 ± 0.05 | 5.26 ± 0.42 | 5.71 ± 0.47 | 74.5 ± 5.23 | 3.04 ± 0.17 | 212 to 214 | 25.84 ± 0.21 | 6.42 ± 0.25 | 2.86 ± 0.06 |
| NS(=O)(=O)c1ccc(N2N=C(c3ccccc3F)CC2c2ccc3c(c2)OCO3)cc1 (stereo not drawn) [Compound 4j, 4-(5-(Benzo[d][1,3]dioxol-5-yl)-3-(2-fluorophenyl)-4,5-dihydro-1H-pyrazol-1-yl)benzenesulfonamide] | >33.15 | 1.81 ± 0.09 | 7.51 ± 0.57 | 8.41 ± 0.29 | 137 ± 12.7 | 4.54 ± 0.29 | 180 to 181 | > 60 | 11.8 ± 0.96 | 5.86 ± 0.36 |
| NS(=O)(=O)c1ccc(N2N=C(c3ccc(Cl)cc3)CC2c2ccc3c(c2)OCCO3)cc1 (stereo not drawn) [Compound 4p, 4-(3-(4-Chlorophenyl)-5-(2,3-dihydrobenzo[b][1,4]dioxin-6-yl)-4,5-dihydro-1H-pyrazol-1-yl)benzenesulfonamide] | 26.46 | 1.41 ± 0.07 | 5.99 ± 0.38 | 6.58 ± 0.49 | 94.7 ± 3.65 | 3.53 ± 0.16 | 146 to 148 | 37.32 ± 0.18 | 8.16 ± 0.63 | 3.83 ± 0.26 |
| NS(=O)(=O)c1ccc(N2N=C(c3cc(F)cc(F)c3)CC2c2ccc3c(c2)OCCO3)cc1 (stereo not drawn) [Compound 4w, 4-(3-(3,5-Difluorophenyl)-5-(2,3-dihydrobenzo[b][1,4]dioxin-6-yl)-4,5-dihydro-1H-pyrazol-1-yl)benzenesulfonamide] | 36.44 | 1.51 ± 0.09 | 6.37 ± 0.39 | 7.04 ± 0.47 | 105 ± 8.87 | 3.78 ± 0.22 | 182 to 183 | 55.02 ± 0.36 | 9.08 ± 0.71 | 4.34 ± 0.28 |
| COc1ccc(C2=NN(c3ccc(S(N)(=O)=O)cc3)C(c3ccc4c(c3)OCCO4)C2)cc1 (stereo not drawn) [Compound 4m, 4-(5-(2,3-Dihydrobenzo[b][1,4]dioxin-6-yl)-3-(4-methoxyphenyl)-4,5-dihydro-1H-pyrazol-1-yl)benzenesulfonamide] | >39.47 | 1.52 ± 0.09 | 6.52 ± 0.33 | 7.22 ± 0.19 | 110 ± 7.42 | 3.88 ± 0.37 | 207 to 208 | > 60 | 9.44 ± 0.77 | 4.54 ± 0.29 |
| NS(=O)(=O)c1ccc(N2N=C(c3cccc(F)c3)CC2c2ccc3c(c2)OCCO3)cc1 (stereo not drawn) [Compound 4v, 4-(5-(2,3-Dihydrobenzo[b][1,4]dioxin-6-yl)-3-(3-fluorophenyl)-4,5-dihydro-1H-pyrazol-1-yl)benzenesulfonamide] | >31.09 | 1.93 ± 0.08 | 7.96 ± 0.55 | 8.95 ± 0.39 | 150 ± 6.94 | 4.84 ± 0.27 | 200 to 201 | > 60 | 12.9 ± 0.99 | 6.47 ± 0.29 |
| Cc1ccc(C2=NN(c3ccc(S(N)(=O)=O)cc3)C(c3ccc4c(c3)OCCO4)C2)cc1 (stereo not drawn) [Compound 4l, 4-(5-(2,3-Dihydrobenzo[b][1,4]dioxin-6-yl)-3-(p-tolyl)-4,5-dihydro-1H-pyrazol-1-yl)benzenesulfonamide] | 46.67 | – | 4.22 ± 0.16 | 4.46 ± 0.36 | 68.7 ± 5.28 | 2.35 ± 0.11 | 153 to 154 | 43.87 ± 0.37 | 5.92 ± 0.39 | 2.58 ± 0.18 |
| NS(=O)(=O)c1ccc(N2N=C(c3ccccc3)CC2c2ccc3c(c2)OCO3)cc1 (stereo not drawn) [Compound 4a, 4-(5-(Benzo[d][1,3]dioxol-5-yl)-3-phenyl-4,5-dihydro-1H-pyrazol-1-yl)benzenesulfonamide] | >44.44 | 1.35 ± 0.08 | 5.77 ± 0.39 | 6.32 ± 0.55 | 88.6 ± 3.96 | 3.38 ± 0.27 | 212 to 214 | > 60 | 7.64 ± 0.57 | 3.54 ± 0.19 |
| NS(=O)(=O)c1ccc(N2N=C(c3ccccc3F)CC2c2ccc3c(c2)OCCO3)cc1 (stereo not drawn) [Compound 4y, 4-(5-(2,3-Dihydrobenzo[b][1,4]dioxin-6-yl)-3-(2-fluorophenyl)-4,5-dihydro-1H-pyrazol-1-yl)benzenesulfonamide] | >27.40 | 2.19 ± 0.21 | 8.96 ± 0.74 | 10.2 ± 0.72 | 178 ± 12.7 | 5.51 ± 0.37 | 191 to 192 | > 60 | 15.4 ± 0.84 | 7.83 ± 0.58 |
| Cc1ccc(C2=NN(c3ccc(S(N)(=O)=O)cc3)C(c3ccc4c(c3)OCCO4)C2)cc1C (stereo not drawn) [Compound 4s, 4-(5-(2,3-Dihydrobenzo[b][1,4]dioxin-6-yl)-3-(3,4-dimethylphenyl)-4,5-dihydro-1H-pyrazol-1-yl)benzenesulfonamide] | >33.33 | 1.8 ± 0.05 | 7.51 ± 0.47 | 8.41 ± 0.17 | 137 ± 3.98 | 4.54 ± 0.31 | 166 to 168 | > 60 | 11.8 ± 0.59 | 5.86 ± 0.47 |
